# According to patent US20170071944A1, “MODULATORS OF TOLL-LIKE RECEPTORS FOR THE TREATMENT OF HIV” (Gilead Sciences, Inc., priority 2015, published 2017):
# Several values for one entry are separate records, joined by “and”; a condition that tells them apart may be missing. Identical values can stand only once.
# Columns and labels:
# Format in all cases: cell-based, human
# [1] = system: HIV-1 expression in PBMC cultures from HIV-1 infected subjects on cART; experiment: Induced HIV-1 expression in PBMC cultures from HIV-1 infected subjects on cART (HIV-1 RNA in culture supernatant, COBAS TaqMan); conditions: for Fold HIV-1 Activation, Geometric Mean with ≧2-Fold-Activation / Fold HIV-1 Activation, Range with ≧2-Fold-Activation: N = 12 subjects
# Procedure: In some experiments, IL-15, the TLR8 modulating compound of Example 15 or the combination of IL-15 and Example 15 were used at the indicated concentrations (Table 4). The cultures were maintained in the presence of antivirals (elvitegravir and efavirenz at 100 nM each) to prevent viral spread and amplification in order to measure the quantity of virus produced (latency reversal) by the TLR8 modulating compounds. At the end of the incubation period, cell-free culture supernatants were harvested and HIV-1 RNA levels were quantified by the COBAS® AmpliPrep/COBAS®TaqMan HIV-1 Test, v2.0 (Roche).
# In each table, fold-activation is calculated as a ratio of HIV-1 RNA copies per ml of cell culture supernatants from TLR8 agonist treated samples and DMSO treated controls. Geometric mean fold-activation from three independent incubation samples for each condition of each subject's PBMCs.
# To assess if the latency reversal induced by TLR8 agonism could further potentiate latency reversal by a separate mechanisms, we treated cells as described above with IL-15, Example 15, or a combination of IL-15 and Example 15 (Table 4).
# [2] = system: HIV-specific polyfunctional CD8 T cells; experiment: Induced HIV-specific polyfunctional CD8+ T cells in PBMC cultures from HIV-1 infected subjects on cART; conditions: for Median HIV-specific polyfunctional CD8 T cells (% proliferating CD8+ cells double positive for IFN-γ and TNF-α): 5 subjects, vehicle 0.73% (Example 15 group), 0.13% (Example 98 group)
# HIV-infected CD4 T cells [3] = experiment: PGT121 antibody-mediated killing of HIV-infected CD4 T cells, PBMC effector model
# From the text: (§1) NK cells and monocytes mediate antibody-dependent cellular cytotoxicity (ADCC) and antibody-dependent cellular phagocytosis (ADCP) respectively. To assess the ability of the compound of Example 15 to enhance ADCC and ADCP, two models were developed using monocytes or PBMCs as effector cells and HIV-infected CD4 T cells as target cells. PBMCs were isolated from 3 healthy subjects' leukaphereses (AllCells, participant IDs A4593, A4596, A4606), as described above. CD4 T cells were isolated from PBMCs using negative selection magnetic beads (EasySep, StemCell Technologies). CD4 T cells were spinfected with HIV-1 isolate 92HT593 (NIH AIDS Reagent Program) and cultured for 5 days at 37° C. For the PBMC model, autologous PBMCs were cultured for 5 days with vehicle control (DMSO) or Example 15 at 100 or 1000 nM. […] Marker staining was measured by flow cytometry using a LSR Fortessa (BD Biosciences) and analyzed with FlowJo software (TreeStar). The percent killing was determined by calculating the reduction of p24+ CD4+ T cells mediated by PGT121 antibody relative to a no antibody control.
# (§2) PBMCs (FIG. 3) or monocytes (FIG. 4) were treated with DMSO or TLR8 agonist for 5 days (FIG. 3) or 1 day (FIG. 4) and then co-cultured for 1 day with autologous HIV-infected CD4 T cells−/+anti-HIV Env antibody PGT121. Reductions in % p24+ CD4+ T cells, relative to no antibody control, were measured by FACS. […]
# HIV-infected CD4 T cells [4] = experiment: PGT121 antibody-mediated killing of HIV-infected CD4 T cells, monocyte effector model; conditions: monocytes from 1 subject, 11 or 33 nM, 1 day
# From the text: as §1, §2
# [5] = Example 15 1000 nM and/or IL-15 1 nM, subjects 205-210
smiles,measurement,setting,value
CCCC[C@H](CO)Nc1nc(N)nc2cccnc12 [Example 15],"Fold HIV-1 Activation, Geometric Mean with ≧2-Fold-Activation",[1]; 10 nM,4.6 fold
same,"Fold HIV-1 Activation, Range with ≧2-Fold-Activation",[1]; 10 nM,2.2-20.1 fold
same,N with ≧2-Fold-Activation (%),"[1]; 10 nM, subjects 172-183",(42) %
same,"Fold HIV-1 Activation, Geometric Mean with ≧2-Fold-Activation",[1]; 100 nM,4.8 fold
same,"Fold HIV-1 Activation, Range with ≧2-Fold-Activation",[1]; 100 nM,2.2-10.1 fold
same,N with ≧2-Fold-Activation (%),"[1]; 100 nM, subjects 172-183",(33) %
same,"Fold HIV-1 Activation, Geometric Mean with ≧2-Fold-Activation","[1]; 1,000 nM",3.4 fold
same,"Fold HIV-1 Activation, Range with ≧2-Fold-Activation","[1]; 1,000 nM",2.4-5.7 fold
same,N with ≧2-Fold-Activation (%),"[1]; 1,000 nM, subjects 172-183",(58) %
same,"Fold HIV-1 Activation, Geometric Mean with ≧2-Fold-Activation","[1]; 10, 100, or 1000 nM",4.4 fold
same,"Fold HIV-1 Activation, Range with ≧2-Fold-Activation","[1]; 10, 100, or 1000 nM",2.2-20.1 fold
same,Fold HIV-1 Activation,"[1]; Example 15 10 nM, 4 days, individual subjects 172-183, vs DMSO",2.6 fold and 2.2 fold and 4.7 fold and 1.2 fold and 1.9 fold and 1.3 fold and 0.3 fold and 0.5 fold and 1.0 fold and 4.1 fold and 20.1 fold and 0.8 fold
same,Fold HIV-1 Activation,"[1]; Example 15 100 nM, 4 days, individual subjects 172-183, vs DMSO",3.8 fold and 6.6 fold and 2.2 fold and 1.5 fold and 1.0 fold and 0.5 fold and 0.2 fold and 0.1 fold and 0.7 fold and 1.8 fold and 10.1 fold and 1.3 fold
same,"Fold HIV-1 Activation, Geometric Mean","[1]; Example 15 1000 nM and/or IL-15 1 nM, N = 6 subjects",2.1 fold
same,Fold HIV-1 Activation,"[1]; Example 15 1000 nM and/or IL-15 1 nM, individual subjects 205-210, vs DMSO",4.7 fold and 0.8 fold and 9.7 fold and 2.0 fold and 1.9 fold and 0.6 fold
same,N with ≧2-Fold-Activation,[1]; [5],3 of 6
same,N with ≧2-Fold-Activation (%),[1]; [5],50%
same,Fold HIV-1 Activation,"[1]; Example 15 1,000 nM, 4 days, individual subjects 172-183, vs DMSO",2.7 fold and 2.4 fold and 3.3 fold and 1.2 fold and 4.7 fold and 0.3 fold (2×) and 3.4 fold and 3.0 fold and 1.3 fold and 1.6 fold and 5.7 fold
same,Patients in whom increases were seen,[2]; 100 nM,3 of 5
same,Median HIV-specific polyfunctional CD8 T cells (% proliferating CD8+ cells double positive for IFN-γ and TNF-α),[2]; 100 nM with HIV peptide pool,0.99%
same,Patients in whom increases were seen,[2]; 1000 nM,4 of 5
same,Increase of median HIV-specific polyfunctional CD8 T cells,"[2]; 1000 nM combined with the HIV specific peptide pool, p<0.05",2.7 fold
same,Median HIV-specific polyfunctional CD8 T cells (% proliferating CD8+ cells double positive for IFN-γ and TNF-α),[2]; 1000 nM with HIV peptide pool,2.01%
same,"PGT121-mediated killing of HIV-infected CD4+ T cells, geometric mean area under the curve (AUC)","HIV-infected CD4 T cells [3]; PBMCs from 3 subjects pre-treated 5 days at 100 nM, 108 for the DMSO control",172
same,Increase of AUC of PGT121-mediated killing compared to DMSO control,"HIV-infected CD4 T cells [3]; PBMCs from 3 subjects, 100 nM",60%
same,PGT121-mediated killing of HIV-infected CD4+ T cells compared to the DMSO control,HIV-infected CD4 T cells [4],markedly enhanced
